Measurements from patent publication US11739083B2, “Disposable sensor chip with reagent including 2-substituted benzothiazolyl-3-substituted phenyl-5-substituted sulfonated phenyl-2H-tetrazolium salt” (TERUMO KABUSHIKI KAISHA, priority 2016, dated 2023).
Converted amounts (≈) assume the structure as drawn.

Key:
[1] = Maximum absorption wavelength (λmax) of formazan-nickel chelate by spectrophotometer; type: physicochemical; conditions: chelate of formazan and nickel ion, aqueous MOPS, cell length 10 mm, n=1
Protocol: 10 mM aqueous solution of MOPS was added to each of the formazan compounds so as to obtain a final concentration of […], and thereby 100 μL of a sample was produced. At this time, all of the samples were red-brown in color. Apart from this, a 1 M aqueous solution of nickel ion was produced.
For mixed solutions of various compounds in an aqueous solution of formazan and an aqueous solution of nickel, the spectra were measured with a spectrophotometer (measurement cell length: 10 mm) (n=1). Based on each of the spectra, the maximum absorption wavelength (λmax) (nm) of each of the compounds in formazan was determined. From FIG. 1, it is understood that the maximum absorption wavelength (λmax) of the chelate compound of formazan compound 1 and nickel ion is 630 nm.
The absorbance at the maximum absorption wavelength is denoted as 100%.

[2] = Evaluation of sensitivity (colour development with glucose, GDH-FAD, m-PMS, nickel; gradient versus WST-4); conditions: gradientsample/gradientWST-4; for Sensitivity, comparison with Comparative Example 5 (rating): absorbance at λmax versus glucose concentration, cell length 50 μm
Protocol: Separately, 100 μL of RO water was added to 7 mg of a glucose dehydrogenase that uses flavin adenine dinucleotide (FAD) as a coenzyme (GDH-FAD) (manufactured by TOYOBO CO., LTD., product No.: GLD-351), the enzyme was dissolved, and thus a GDH solution was produced. Furthermore, 200 μL of RO water was added to 3.5 mg of 1-methoxy-5-methylphenazium methyl sulfate (m-PMS) (manufactured by DOJINDO LABORATORIES), and the compound was dissolved therein. Thus, an s-PMS solution was produced. 1 mL of RO water was added to 129 mg of nickel chloride to dissolve the salt, and thus a nickel solution was produced.
40 μL of the reaction solution was added to 10 μL each of an aqueous glucose solution at a concentration of 125 mg/dL, an aqueous glucose solution at a concentration of 250 mg/dL, and an aqueous glucose solution at a concentration of 1,000 mg/dL, and the mixtures were allowed to develop color. The spectra were measured with a spectrophotometer (measurement cell length: 50 μm) (n=1). […] Thus, the gradient (gradientsample) was determined.
40 μL of the control reaction solution was added to 10 μL each of an aqueous glucose solution at a concentration of 125 mg/dL, an aqueous glucose solution at a concentration of 250 mg/dL, and an aqueous glucose solution at a concentration of 1,000 mg/dL, and the mixtures were allowed to develop color. The spectra were measured with a spectrophotometer (measurement cell length: 50 μm) (n=1). For each of the spectra, the absorbance at 650 nm, which is the measurement wavelength (λmax) of WST-4, was measured, and the glucose concentration in the colored solution and the absorbance were plotted on the horizontal axis and the vertical axis, respectively. Thus, the gradient (gradientWST-4) was determined.
FIG. 2 is a graph showing the relationship between the glucose concentration and the absorbance of produced formazan in relation to the tetrazolium compound 1 and WST-4. […] Meanwhile, the gradient serves as an index for the color development intensity of each compound. Therefore, when the value obtained by dividing the gradientsample by the gradientWST-4 (gradientsample/gradientWST-4) is greater than one-fold, it is implied that the intensity of color development on the longer wavelength side is higher compared to WST-4, which is a well-known indicator reagent.

[3] = Evaluation of water-solubility (visual check for precipitate); type: physicochemical; conditions: RO water / 0.5 M MOPS solution (1:1), aqueous buffer, thermodynamic from solid; RO water and 0.5 M MOPS pH 7.2; 200, 100, 20 mM; stirred 5 minutes
Protocol: After the mixture was stirred for 5 minutes, a precipitate was checked by visual inspection. […] After the mixture was stirred for 5 minutes, a precipitate was checked by visual inspection. […] After the mixture was stirred for 5 minutes, a precipitate was checked by visual inspection.

SMILES | Maximum absorption wavelength (λmax) [1] [nm] | Sensitivity, comparison with Comparative Example 5 (rating) [2] | solubility at 5 min [3] [mM] | Sensitivity, comparison with Comparative Example 5 (ratio) [2] [times]
COc1ccc(S(=O)(=O)O)cc1-[n+]1nc(-c2ccc(S(=O)(=O)O)cc2S(=O)(=O)[O-])nn1-c1nc2ccccc2s1 [Comparative Example 1, reference compound] | 580 | Δ (the value of the ratio gradientsample/gradientWST-4 was greater than 1 and less than 1.5) | 100 to 200 (≈ 62.6 to 125 mg/mL) | 
COc1ccc2nc(-n3nc(-c4ccc(S(=O)(=O)O)cc4S(=O)(=O)[O-])n[n+]3-c3cc(S(=O)(=O)O)ccc3OC)sc2c1 [Example 2] | 600 | ⊙ (gradientsample/gradientWST-4) was 2 or greater) | > 200 | 
COc1ccc2nc(-n3nc(-c4ccc(S(=O)(=O)O)cc4S(=O)(=O)O)n[n+]3-c3cc(S(=O)(=O)[O-])c([N+](=O)[O-])cc3OC)sc2c1 [Example 3] | 630 | ◯ (the value of the ratio gradientsample/gradientWST-4 was 1.5 or greater and less than 2) | > 200 | 
COc1ccc2nc(-n3nc(-c4ccc(S(=O)(=O)[O-])cc4S(=O)(=O)[O-])n[n+]3-c3ccc([N+](=O)[O-])cc3OC)sc2c1.[Na+] [Example 4] | 650 | ⊙ (gradientsample/gradientWST-4) was 2 or greater) | 20 to 100 | 
COc1ccc2nc(-n3nc(-c4ccc(O)cc4S(=O)(=O)[O-])n[n+]3-c3cc(S(=O)(=O)[O-])ccc3OC)sc2c1.[Na+] [Example 5] | 630 | ◯ (the value of the ratio gradientsample/gradientWST-4 was 1.5 or greater and less than 2) | 100 to 200 | 
COc1ccc2nc(-n3nc(-c4ccc(O)c(S(=O)(=O)[O-])c4)n[n+]3-c3cc(S(=O)(=O)[O-])ccc3OC)sc2c1.[Na+] [Example 6] | 650 | ⊙ (gradientsample/gradientWST-4) was 2 or greater) | 20 to 100 | 
COc1ccc2nc(-n3nc(-c4ccccc4S(=O)(=O)[O-])n[n+]3-c3ccc(S(=O)(=O)[O-])cc3)sc2c1.[Na+] [Example 7] | 645 | ⊙ (gradientsample/gradientWST-4) was 2 or greater) | 100 to 200 | 
COc1ccc2nc(-n3nc(-c4cc(S(=O)(=O)[O-])cc(S(=O)(=O)O)c4)n[n+]3-c3cc(S(=O)(=O)O)ccc3OC)sc2c1 [Example 8] | 620 | ◯ (the value of the ratio gradientsample/gradientWST-4 was 1.5 or greater and less than 2) | > 200 | 
COc1ccc2nc(-n3nc(-c4cc(S(=O)(=O)O)cc(S(=O)(=O)O)c4)n[n+]3-c3ccc(OC)c(S(=O)(=O)[O-])c3)sc2c1 [Example 9] | 640 | ◯ (the value of the ratio gradientsample/gradientWST-4 was 1.5 or greater and less than 2) | > 200 | 
COc1ccc2nc(-n3nc(-c4ccc(S(=O)(=O)O)cc4S(=O)(=O)[O-])n[n+]3-c3ccc(C(=O)O)cc3OC)sc2c1 [Example 10] | 620 | ◯ (the value of the ratio gradientsample/gradientWST-4 was 1.5 or greater and less than 2) | > 200 | 
COc1ccc2nc(-n3nc(-c4cc(S(=O)(=O)[O-])cc(S(=O)(=O)O)c4)n[n+]3-c3cc(C(=O)O)ccc3OC)sc2c1 [Example 11] | 605 | ◯ (the value of the ratio gradientsample/gradientWST-4 was 1.5 or greater and less than 2) | > 200 | 
COc1ccc2nc(-n3nc(-c4ccc(S(=O)(=O)O)cc4S(=O)(=O)[O-])n[n+]3-c3ccc(OC)c(C(=O)O)c3)sc2c1 [Example 12] | 630 | ⊙ (gradientsample/gradientWST-4) was 2 or greater) | > 200 | 2.4
COc1ccc(S(=O)(=O)O)cc1-[n+]1nc(-c2ccc(S(=O)(=O)O)cc2S(=O)(=O)[O-])nn1-c1nc2cc3c(cc2s1)OCO3 [Example 13] | 625 | ⊙ (gradientsample/gradientWST-4) was 2 or greater) | > 200 | 2.4
COc1ccc(S(=O)(=O)O)cc1-[n+]1nc(-c2ccc(S(=O)(=O)O)cc2S(=O)(=O)[O-])nn1-c1nc2cc3c(cc2s1)OCCO3 [Example 14] | 610 | ⊙ (gradientsample/gradientWST-4) was 2 or greater) | > 200 | 2.4
COc1ccc(-[n+]2nc(-c3ccc(S(=O)(=O)O)cc3S(=O)(=O)O)nn2-c2nc3cc4c(cc3s2)OCO4)cc1S(=O)(=O)[O-] [Example 17] | 650 | ⊙ (gradientsample/gradientWST-4) was 2 or greater) | > 200 | 2.4
COc1ccc(-[n+]2nc(-c3ccc(S(=O)(=O)O)cc3S(=O)(=O)O)nn2-c2nc3cc4c(cc3s2)OCCO4)cc1S(=O)(=O)[O-] [Example 19] | 640 | ⊙ (gradientsample/gradientWST-4) was 2 or greater) | > 200 | 2.4
CCOc1ccc2nc(-n3nc(-c4ccc(S(=O)(=O)O)cc4S(=O)(=O)O)n[n+]3-c3ccc(OC)c(S(=O)(=O)[O-])c3)sc2c1 [Example 20] | 630 | ⊙ (gradientsample/gradientWST-4) was 2 or greater) | > 200 | 2.4
COc1ccccc1-[n+]1nc(-c2ccc(S(=O)(=O)O)cc2S(=O)(=O)[O-])nn1-c1nc2ccccc2s1 [compound 4, reference compound] | 580 | ⊙ (gradientsample/gradientWST-4) was 2 or greater) | 100 to 200 (≈ 54.6 to 109 mg/mL) | 
